The subject of data set [1] is STAT6 mRNA. The data set is described as follows: STAT6 siNA screen and dose response in human A549 cells, STAT6 mRNA by quantitative RT-PCR (Taqman). The data set is classed as cell-based. Particulars: human A549 cells, 10 nM siNA, 24 hrs, normalized to GAPDH and non-targeting control, mean ± S.D., n = 3. As to the method: A549 (human; ATCC cat# CCL-185): Cells were cultured at 37° C. in the presence of 5% CO2 and grown in Ham's F12K medium with 2 mM L-glutamine adjusted to contain 1.5 g/L sodium bicarbonate and supplemented with fetal bovine serum at a final concentration of 10%, 100 μg/mL of streptomycin, and 100 U/mL penicillin.
(§1) Cells were plated in all wells of a tissue-culture treated, 96-well plate at a final count of 5000 cells/well in […], of the appropriate culture media. The cells were cultured for 24 hours after plating at 37° C. in the presence of 5% CO2.
(§2) After 24 hours, complexes containing siNA and RNAiMax were created as follows: A solution of RNAiMax diluted 33-fold in OPTI-MEM was prepared. In parallel, solutions of the siNAs for testing were prepared to a final concentration of 120 nM in OPTI-MEM. After incubation of RNAiMax/OPTI-MEM solution at room temperature for 5 min, an equal volume of the siNA solution and the RNAiMax solution were added together for each of the siNAs.
(§3) This solution was incubated at room temperature for 20 minutes. After incubation, 20 uL of the solution was added to each of the relevant wells. The final concentration of siNA in each well was 10 nM and the final volume of RNAiMax in each well was 0.3u1.
(§4) The time of incubation with the RNAiMax-siNA complexes was 24 hours and there was no change in media between transfection and harvesting, unless otherwise indicated.
(§5) RNA was extracted from a 96-well plate using the TaqMan® Gene Expression Cells-to-CT™ Kit (Cat#4399002) with a modified protocol. Briefly, a 60 uL (1 plate) or 110 uL (2 plates) of the Lysis Solution with DNase I was dispensed into each well of the Lysis Buffer Plate (twin.tec full skirt plate). The lysis buffer and stop plates were stored at 4° C. until the cells were washed.
(§6) The plate was spun at 1100 rpm for 5 minutes. The culture medium was aspirated and discarded from the wells of the culture plate. The lysis was performed automatically using a BioMek FX instrument and method. After the Biomek method was completed, the lysis plate was incubated for 2 min. at room temperature. The lysis plate can be stored for 2 hours at 4° C., or at −20° C. or −80° C. for two months.
(§7) Each well of the reverse transcription plate required 10 uL of 2× reverse transcriptase Buffer, luL of 20× reverse transcription enzyme and 2 uL of nuclease-free water. The reverse transcription master mix was prepared by mixing 2× reverse transcription buffer, 20× reverse transcription enzyme mix, and nuclease-free water. 13 uL of the reverse transcription master mix was dispensed into each well of the reverse transcription plate (semi-skirted). A separate reverse transcription plate was prepared for each cell plate. The plate was loaded onto a Biomek NX or Biomek FX Dual-96 and the Biomek method was run. The program is programmed to automatically added 7 uL of lysate from the cell lysis procedure described above into each well of the reverse transcription plate. The plate is sealed and spun on a centrifuge (1000 rpm for 30 seconds) to settle the contents to the bottom of the reverse transcription plate. The plate is placed in a thermocycler at 37° C. for 60 min, 95° C. for 5 min, and 4° C. until the plate is removed from the thermocycler. Upon removal, if not used immediately, the plate was frozen at −20° C.
(§8) A series of probes and primers were used to detect the various mRNA transcripts of the genes of 13-Actin (human cell line only), and of STATE and GAPDH in mouse and human cell lines. All Taqman probes and primers for the experiments here-in described were supplied as pre-validated sets by Applied Biosystems, Inc. (see Table 2).
The assays were performed on an ABI 7900 instrument, according to the manufacturer's instructions. A TaqMan Gene Expression Master Mix (provided in the Cells-to-CTT™, Applied Biosystems, Cat #4399002) was used. The PCR reactions were carried out at 50° C. for 2 min, 95° C. for 20 min followed by 40 cycles at 95° C. for 15 secs and 60° C. for 1 min. […]
On the technique in general: Real-time PCR tracks product formation cycle by cycle.

In data set [2] the test system is STAT6 mRNA. The data set is described as follows: STAT6 siNA screen in mouse NIH 3T3 cells, STAT6 mRNA by quantitative RT-PCR (Taqman). The data set is classed as cell-based. Particulars: mouse NIH3T3 cells, 10 nM siNA, 24 hrs, normalized to GAPDH and non-targeting control, n = 2. As to the method: NIH 3T3 (mouse; ATCC cat# CRL-1658): Cells were cultured at 37° C. in the presence of 5% CO2 and grown in Dulbecco's modified Eagle's medium (DMEM) with 4 mM L-glutamine adjusted to contain 1.5 g/L sodium bicarbonate and 4.5 g/L glucose and supplemented with fetal bovine serum at a final concentration of 10%, 100 μg/mL of streptomycin, and 100 U/mL penicillin.
as §1, §2, §3, §4, §5, §6, §7, §8
The assays were performed on an ABI 7900 instrument, according to the manufacturer's instructions. A TaqMan Gene Expression Master Mix (provided in the Cells-to-CTT™, Applied Biosystems, Cat #4399002) was used. […]

[invAb] = inverted abasic unit; m = 2'-O-methyl; r = 2'-OH (RNA); f = 2'-fluoro

The text below walks through data of patent US20120035247A1, “RNA Interference Mediated Inhibition of Signal Transducer and Activator of Transcription 6 (STAT6) Gene Expression Using Short Interfering Nucleic Acid (siNA)” (Merck Sharp & Dohme Corp., priority 2009, published 2012).

For “30025-DC: STAT6 siNA duplex; sense SEQ ID NO: 114, antisense SEQ ID NO: 115; target AACGCUGUCUCCGGAGCUA, site 1848 (sense AACGCUGUCUCCGGAGCUATT; antisense UAGCUCCGGAGACAGCGUUUU; sense: DNA at AGT, 2'-fluoro at CU, [invAb] at 5' end, 3' end, backbone not given here; antisense: sugars from the 5' end rrrffffmmmmmfmmfmffmm, backbone not given here) [STAT6 siNA duplex; target AACGCUGUCUCCGGAGCUA, site 1848]”, the “% KD STAT6” value was 48.1 ± 7.5% in data set [1] and 34.2 ± 1.8% in data set [2].
The matching figures for “29993-DC: STAT6 siNA duplex; sense SEQ ID NO: 50, antisense SEQ ID NO: 51; target CCCUUGAGAGCAUAUAUCA, site 519 (sense CCCUUGAGAGCAUAUAUCATT; antisense UGAUAUAUGCUCUCAAGGGUU; sense: DNA at AGT, 2'-fluoro at CU, [invAb] at 5' end, 3' end, backbone not given here; antisense: sugars from the 5' end rrrfmfmfmffmfmmmmmmmm, backbone not given here) [STAT6 siNA duplex; target CCCUUGAGAGCAUAUAUCA, site 519]”: 24.4 ± 8.1% and −23.4 ± 1.6%.
The matching figures for “30020-DC: STAT6 siNA duplex; sense SEQ ID NO: 104, antisense SEQ ID NO: 105; target CUAGCCUUCUCCUCAAUGA, site 1928 (sense CUAGCCUUCUCCUCAAUGATT; antisense UCAUUGAGGAGAAGGCUAGUU; sense: DNA at AGT, 2'-fluoro at CU, [invAb] at 5' end, 3' end, backbone not given here; antisense: sugars from the 5' end r3 f2 m10 f2 m4, backbone not given here) [STAT6 siNA duplex; target CUAGCCUUCUCCUCAAUGA, site 1928]”: 58.8 ± 13.6% and 64.2 ± 7.9%.
The matching figures for “30024-DC: STAT6 siNA duplex; sense SEQ ID NO: 112, antisense SEQ ID NO: 113; target CGCUGUCUCCGGAGCUACU, site 1850 (sense CGCUGUCUCCGGAGCUACUTT; antisense AGUAGCUCCGGAGACAGCGUU; sense: DNA at AGT, 2'-fluoro at CU, [invAb] at 5' end, 3' end, backbone not given here; antisense: sugars from the 5' end rrrmmffffmmmmmfmmfmmm, backbone not given here) [STAT6 siNA duplex; target CGCUGUCUCCGGAGCUACU, site 1850]”: 38.9 ± 11.2% and 19.5 ± 5.6%.
Turning to “29994-DC: STAT6 siNA duplex; sense SEQ ID NO: 52, antisense SEQ ID NO: 53; target CUGAUCAUUGGCUUCAUCA, site 1880 (sense CUGAUCAUUGGCUUCAUCATT; antisense UGAUGAAGCCAAUGAUCAGUU; sense: DNA at AGT, 2'-fluoro at CU, [invAb] at 5' end, 3' end, backbone not given here; antisense: sugars from the 5' end rrrfmmmmffmmfmmffmmmm, backbone not given here) [STAT6 siNA duplex; target CUGAUCAUUGGCUUCAUCA, site 1880]”, the “% KD STAT6” value in data set [1] is 1.9 ± 15.7%; in data set [2], −13.9 ± 4.1%.
For the substance “30029-DC: STAT6 siNA duplex; sense SEQ ID NO: 122, antisense SEQ ID NO: 123; target GUGUCCUGGACCUCACCAA, site 1830 (sense GUGUCCUGGACCUCACCAATT; antisense UUGGUGAGGUCCAGGACACUU; sense: DNA at AGT, 2'-fluoro at CU, [invAb] at 5' end, 3' end, backbone not given here; antisense: sugars from the 5' end rrrmfmmmmfffmmmmfmfmm, backbone not given here) [STAT6 siNA duplex; target GUGUCCUGGACCUCACCAA, site 1830]”, the “% KD STAT6” value in data set [1] is 13.2 ± 7.8%; in data set [2], −17.5 ± 12.8%.
On the same counts, the results for “30011-DC: STAT6 siNA duplex; sense SEQ ID NO: 86, antisense SEQ ID NO: 87; target CCGAGAAUCUCUGCAGCAA, site 726 (sense CCGAGAAUCUCUGCAGCAATT; antisense UUGCUGCAGAGAUUCUCGGUU; sense: DNA at AGT, 2'-fluoro at CU, [invAb] at 5' end, 3' end, backbone not given here; antisense: sugars from the 5' end rrrffmfmmmmmfffffmmmm, backbone not given here) [STAT6 siNA duplex; target CCGAGAAUCUCUGCAGCAA, site 726]” are 34.9 ± 11.5% and 53.4 ± 0.2%.
On to “30028-DC: STAT6 siNA duplex; sense SEQ ID NO: 120, antisense SEQ ID NO: 121; target CUGCCAAAGACCUGUCCAU, site 2049 (sense CUGCCAAAGACCUGUCCAUTT; antisense AUGGACAGGUCUUUGGCAGUU; sense: DNA at AGT, 2'-fluoro at CU, [invAb] at 5' end, 3' end, backbone not given here; antisense: sugars from the 5' end rrrmmfmmmfffffmmfmmmm, backbone not given here) [STAT6 siNA duplex; target CU…UGUCCAU, site 2049]”, for which the “% KD STAT6” value stood at 29.5 ± 6.4% in data set [1] and 31.1 ± 4.3% in data set [2].
As for “30022-DC: STAT6 siNA duplex; sense SEQ ID NO: 108, antisense SEQ ID NO: 109; target CCAAGACCCGGGCAUCGCU, site 1037 (sense CCAAGACCCGGGCAUCGCUTT; antisense AGCGAUGCCCGGGUCUUGGUU; sense: DNA at AGT, 2'-fluoro at CU, [invAb] at 5' end, 3' end, backbone not given here; antisense: chemistry not given here; in the key) [STAT6 siNA duplex; target …UCGCU, site 1037]”, the “% KD STAT6” value in data set [1] was determined as 56.1 ± 8.3%; in data set [2], 51.5 ± 0%.
